Reference: patent US5370861A, “Iodinated esters contrast medium and use” (Nycomed Imaging AS, priority 1989, dated 1994)
Blank lines part the entries; values can stand above or below the compound they belong to.

Tests used:
hepatocytes = conditions: in vivo, iv; cited from earlier work
liver = experiment: CT studies in rabbit: contrast enhancement in the liver; type: in vivo, rabbits; conditions: dynamic CT, iohexol 350 mg I/ml
Procedure: Contrast enhancement in the liver was investigated in rabbits. Anaesthetized animals were placed in a Siemens CT scanner and injected with particles of Pharmaceutical Formulation 4 in the marginal ear vein. Particle concentration was 28 mg/ml. A particle dose corresponding to 75 mg I/kg gave an increase in liver contrast from a basal level of […] to about 120 HU. Thus, the contrast enhancement on this dose level was about 35-40 HU. […] The average iodine content in these livers was 1.1 mg I/g liver. […] About 8 times more iodine had to be injected in these animals to achieve the same contrast enhancement of the liver. With this vascular contrast medium, the enhancement was transient, lasting for one or two minutes.

[1] = In vitro biodegradation: hydrolysis with release of Isopaque in Seronorm, pH 7.4, 37° C (HPLC); type: in vitro ADME; conditions: seronorm serum, Seronorm (0.5 mg/ml), read-out: substance hydrolysed after 6 hours in Seronorm
Procedure: The following Examples are given by way of illustration only. Seronorm is a test serum available from Nycomed AS, Oslo, Norway.
(§1) The powdered product of Example 1 was suspended in Seronorm (0.5 mgml) at pH 7.4 and agitated at 37° C. As a control the experiment was also performed in phosphate buffered saline (PBS) at pH 7.4. At different time points samples were taken from the supernatant after centrifugation of the vial (4000 rpm, 10 rain). The release of Isopaque (5-(N-acetylamino)-3-(N-acetyl-N-methylamino)-2,4,6-triiodobenzene carboxylic acid) was analysed by HPLC. After 6 hours 100% of the substance was hydrolysed. In PBS only 1.1% was hydrolysed during the same period.

[2] = In vitro biodegradation control: hydrolysis in phosphate buffered saline (PBS), pH 7.4; type: physicochemical; conditions: read-out: substance hydrolysed in PBS
Procedure: as §1

SMILES: CCOC(=O)c1c(I)cc(I)c(NC(=O)CCCCC(=O)Nc2c(I)cc(I)c(C(=O)OCC)c2I)c1I [ethyl ester of iodipamide, ethyl ester of the water soluble X-ray contrast agent, iodipamide]
- lipid vacuoles in the hepatocytes (hepatocytes): increase in lipid vacuoles in the hepatocytes

SMILES: CC(=O)N(CC(O)CO)c1c(I)c(C(=O)NCC(O)CO)c(I)c(C(=O)NCC(O)CO)c1I (stereo not drawn) [iohexol]
- duration of enhancement (liver): one or two
- iodine to be injected to achieve the same contrast enhancement of the liver, relative to Pharmaceutical Formulation 4 (liver): About 8 times
- nature of enhancement with vascular contrast medium (liver): transient

- metabolised at 6 h [1]: 100%
- degraded at 6 h [2]: 1.1%
SMILES: CCOC(=O)OC(C)OC(=O)c1c(I)c(NC(C)=O)c(I)c(N(C)C(C)=O)c1I (stereo not drawn) [Example 1, 1-(Ethyloxycarbonyloxy)ethyl 5-(N-acetylamino)-3-(N-acetyl-N-methylamino)-2,4,6-triiodobenzenecarboxylate]
